# Where two headings read alike, the source gives them in different places.
# What was measured:
# HCV replicon = HCV replicon FRET assay; type: cell-based; settings: Hepatitis C virus
# Source text: FRET Assay Preparation. To perform the HCV FRET screening assay, 96-well cell culture plates were used. The FRET peptide (Anaspec, Inc.) (Taliani et al., Anal. Biochem. 1996, 240, 60-67) contains a fluorescence donor, EDANS, near one end of the peptide and an acceptor, DABCYL, near the other end. The fluorescence of the peptide is quenched by […] resonance energy transfer (RET) between the donor and the acceptor, but as the NS3 protease cleaves the peptide the products are released from RET quenching and the fluorescence of the donor becomes apparent. The assay reagent was made as follows: 5× cell Luciferase cell culture lysis reagent from Promega (#E153A) diluted to 1× with dH2O, NaCl added to 150 mM final, the FRET peptide diluted to 20 uM final from a 2 mM stock.
# To prepare plates, HCV replicon cells, with or without a Renilla luciferase reporter gene, were trypsinized and placed into each well of a 96-well plate with titrated test compounds added in columns 3 through 12; columns 1 and 2 contained a control compound (HCV protease inhibitor), and the bottom row contained cells without compound. The plates were then placed in a CO2 incubator at 37° C.
# Assays. Subsequent to addition of the test compounds described above (FRET Assay Preparation), at various times the plate was removed and Alamar blue solution (Trek Diagnostics, #00-100) was added per well as a measure of cellular toxicity. After reading in a Cytoflour 4000 instrument (PE Biosystems), plates were rinsed with PBS and then used for FRET assay by the addition of 30 ul of the FRET peptide assay reagent described above (FRET Assay Preparation) per well. The plate was then placed into the Cytoflour 4000 instrument which had been set to 340 excite/490 emission, automatic mode for 20 cycles and the plate read in a kinetic mode. Typically, the signal to noise using an endpoint analysis after the reads was at least three-fold. Alternatively, after Alamar blue reading, plates were rinsed with PBS, 50 ul of DMEM (high glucose) without phenol red was added and plates were then used for luciferase assay using the Promega Dual-Glo Luciferase Assay System.
# Compound analysis was determined by quantification of the relative HCV replicon inhibition and the relative cytotoxicity values. To calculate cytoxicity values, the average Alamar Blue fluorescence signals from the control wells were set as 100% non-toxic. The individual signals in each of the compound test wells were then divided by the average control signal and multiplied by 100% to determine […]. To calculate the HCV replicon inhibition values, an average background value was obtained from the two wells containing the highest amount of HCV protease inhibitor at the end of the assay period. These numbers were similar to those obtained from naïve Huh-7 cells.
# The background numbers were then subtracted from the average signal obtained from the control wells and this number was used as 100% activity. The individual signals in each of the compound test wells were then divided by the averaged control values after background subtraction and multiplied by 100% to determine percent activity. EC50 values for a protease inhibitor titration were calculated as the concentration which caused a 50% reduction in FRET or luciferase activity. The two numbers generated for the compound plate, percent cytoxicity and percent activity were used to determine compounds of interest for further analysis.
# HCV NS5B = target: T1, HCV NS5B (Hepatitis C virus genotype 1b, UniProt Q9WMX2); assay: HCV NS5B RdRp enzyme assay (preincubation protocol); type: biochemical
# T1 construct: The protein was expressed with an 18 amino acid C-terminal truncation to enhance the solubility; made in house; host or cells: E. coli BL21 (DE3), pET21a
# T1 sequence (Q9WMX2 2420-2992): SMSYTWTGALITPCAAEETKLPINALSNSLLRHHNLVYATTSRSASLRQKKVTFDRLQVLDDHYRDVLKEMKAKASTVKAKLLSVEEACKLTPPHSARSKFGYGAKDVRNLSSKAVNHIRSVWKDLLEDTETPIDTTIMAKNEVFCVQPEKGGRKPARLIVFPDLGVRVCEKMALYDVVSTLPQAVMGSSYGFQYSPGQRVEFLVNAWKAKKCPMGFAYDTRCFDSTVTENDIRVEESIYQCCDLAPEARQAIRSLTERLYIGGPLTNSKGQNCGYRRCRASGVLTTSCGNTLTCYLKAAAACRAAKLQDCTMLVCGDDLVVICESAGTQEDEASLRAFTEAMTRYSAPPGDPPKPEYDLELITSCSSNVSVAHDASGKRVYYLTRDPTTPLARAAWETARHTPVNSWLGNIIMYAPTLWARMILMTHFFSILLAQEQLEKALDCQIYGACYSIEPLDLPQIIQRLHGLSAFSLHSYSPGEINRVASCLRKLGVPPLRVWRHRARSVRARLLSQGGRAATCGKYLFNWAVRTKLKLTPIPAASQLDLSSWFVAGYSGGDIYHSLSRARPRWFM
# Outline: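 C-terminally truncated (Δ18) genotype 1b NS5B from E. coli, 14 nM, added to compound, then polyA template (0.2 nM), 3H-UTP (0.29 μM) and oligo-dT12 primer precaptured on streptavidin SPA beads. 4 h at 30 °C, pH 7.5, 2% DMSO; SPA readout; IC50 from seven concentrations by logistic fit.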
# [1] = Table 1b, FRET assay, read-out: EC50*
# [2] = Table 1, FRET assay, read-out: EC50*
# [3] = Table 1a, FRET assay, read-out: EC50*
Structure (SMILES),EC50 (HCV replicon; [2]) [µM],"IC50 (HCV NS5B; Table 1, read-out: IC50*) [µM]",further results
COc1ccc2c(c1)C=C(C(=O)O)Cn1c-2c(C2CCCCC2)c2ccc(C(=O)NS(=O)(=O)N3CCN(C(C)=O)CC3)cc21,,,"EC50 (HCV replicon; [1]): > 10 µM; IC50 (HCV NS5B; Table 1b, read-out: IC50*): 0.02 to 1 µM"
O=C(NC1Cc2ccccc2-c2c(C3CCCCC3)c3ccc(C(=O)O)cc3n2C1)OCc1ccccc1 (centres unmarked),0.07 to 1,0.01 to 1,
O=C(O)c1ccc2c(C3CCCCC3)c3n(c2c1)C[C@@H](NC(=O)N1CCOCC1)Cc1ccccc1-3,0.07 to 1,0.01 to 1,
CCN(C)C(=O)CN(C)C(=O)C1=Cc2cc(OC)ccc2-c2c(C3CCCCC3)c3ccc(C(=O)NS(=O)(=O)N(C)C)cc3n2C1,,,"EC50 (HCV replicon; [3]): 0.03 to 1 µM; IC50 (HCV NS5B; Table 1a, read-out: IC50*): 0.01 to 1 µM"
O=C(O)c1ccc2c(C3CCCCC3)c3n(c2c1)CC(C(=O)N1CCC(N2CC[C@@H](F)C2)CC1)=Cc1ccccc1-3,0.07 to 1,0.01 to 1,
COc1ccc2c(c1)CC(NC(=O)N(C)CC(=O)NC1CC1)Cn1c-2c(C2CCCCC2)c2ccc(C(=O)NS(=O)(=O)N(C)C)cc21 (centres unmarked),,,"EC50 (HCV replicon; [1]): 0.03 to 1 µM; IC50 (HCV NS5B; Table 1b, read-out: IC50*): 0.02 to 1 µM"
CN(C)S(=O)(=O)NC(=O)c1ccc2c(C3CCCCC3)c3n(c2c1)CC(C(=O)N1CCC(F)(F)CC1)=Cc1ccccc1-3,0.07 to 1,0.01 to 1,
COc1ccc2c(c1)CC(NC(=O)N1CCOC(CN3CCCC3)C1)Cn1c-2c(C2CCCCC2)c2ccc(C(=O)NS(=O)(=O)N(C)C)cc21 (centres unmarked),,,"EC50 (HCV replicon; [3]): 0.03 to 1 µM; IC50 (HCV NS5B; Table 1a, read-out: IC50*): 0.01 to 1 µM"
CC(=O)NN(C)C(=O)C1=Cc2ccccc2-c2c(C3CCCCC3)c3ccc(C(=O)NS(=O)(=O)N(C)C)cc3n2C1,0.07 to 1,0.01 to 1,
COC[C@H]1CCCN1C(=O)C1=Cc2ccccc2-c2c(C3CCCCC3)c3ccc(C(=O)NS(=O)(=O)N(C)C)cc3n2C1,0.07 to 1,0.01 to 1,
COc1ccc2c(c1)C=C(C(=O)N1CCOC(CF)C1)Cn1c-2c(C2CCCCC2)c2ccc(C(=O)NS(=O)(=O)N(C)C)cc21 (centres unmarked),,,"EC50 (HCV replicon; [1]): 0.03 to 1 µM; IC50 (HCV NS5B; Table 1b, read-out: IC50*): 0.02 to 1 µM"
CN1CCCC(CN(C)C(=O)C2=Cc3ccccc3-c3c(C4CCCCC4)c4ccc(C(=O)NS(=O)(=O)N(C)C)cc4n3C2)C1 (centres unmarked),0.07 to 1,0.01 to 1,
COc1ccc2c(c1)CC(C(=O)N(C)C1CCOCC1)Cn1c-2c(C2CCCCC2)c2ccc(C(=O)O)cc21 (centres unmarked),,,"EC50 (HCV replicon; [3]): 0.03 to 1 µM; IC50 (HCV NS5B; Table 1a, read-out: IC50*): < 0.02 µM"
CN(C)S(=O)(=O)NC(=O)c1ccc2c(C3CCCCC3)c3n(c2c1)CC(C(=O)N1CCN(c2ncccn2)CC1)=Cc1ccccc1-3,0.07 to 1,0.01 to 1,
COC(=O)c1ccc2c(C3CCCCC3)c3n(c2c1)CC(C(=O)N1CCC(N2CCCC(F)(F)C2)CC1)=Cc1ccccc1-3,> 0.37,> 1,
CN(C)S(=O)(=O)NC(=O)c1ccc2c(C3CCCCC3)c3n(c2c1)CC(C(=O)N1CCN(c2ccccc2)CC1)=Cc1ccccc1-3,0.07 to 1,0.01 to 1,
COc1ccc2c(c1)CC(NC(=O)N1C[C@@H](C)N(C(C)=O)[C@@H](C)C1)Cn1c-2c(C2CCCCC2)c2ccc(C(=O)NS(=O)(=O)N(C)C)cc21 (some centres unmarked),,,"EC50 (HCV replicon; [3]): 0.03 to 1 µM; IC50 (HCV NS5B; Table 1a, read-out: IC50*): 0.01 to 1 µM"
CN(C)S(=O)(=O)NC(=O)c1ccc2c(C3CCCCC3)c3n(c2c1)CC(C(=O)N1CCC(Oc2ncccn2)CC1)=Cc1ccccc1-3,0.07 to 1,0.01 to 1,
O=C(O)c1ccc2c(C3CCCCC3)c3n(c2c1)CC(C(=O)N1CCC(N2C(=O)Cc4ccccc42)CC1)=Cc1ccccc1-3,,0.01 to 1,EC50 (HCV replicon): 0.07 to 1 µM
CCOC(=O)[C@H]1C[C@@H](O)CN1C(=O)C1=Cc2cc(OC)ccc2-c2c(C3CCCCC3)c3ccc(C(=O)NS(=O)(=O)N(C)C)cc3n2C1,,,"EC50 (HCV replicon; [3]): 0.03 to 1 µM; IC50 (HCV NS5B; Table 1a, read-out: IC50*): < 0.02 µM"
COc1ccc2c(c1)C=C(C(=O)N(C)CC(=O)N(C)C)Cn1c-2c(C2CCCCC2)c2ccc(C(=O)N(C)CC(=O)N(C)C)cc21,,,"EC50 (HCV replicon; [1]): 1 to 10 µM; IC50 (HCV NS5B; Table 1b, read-out: IC50*): 0.02 to 1 µM"
CN(C)S(=O)(=O)NC(=O)c1ccc2c(C3CCCCC3)c3n(c2c1)CC(C(=O)N1CCC(N2CCCC(F)(F)C2)CC1)=Cc1ccccc1-3,0.07 to 1,0.01 to 1,
